Test results from US5093231A, “Substrate composition for alkaline phosphatase and method for assay using same” (Becton, Dickinson and Company, priority 1991, dated 1992).
Values belong to the compound of their own block, whether it stands above or below them.

Columns and labels:
AP from the intestine = conditions: Van Belle, Biochim. et Biophys. Acta., 289, 158 (1972); cited from earlier work
[1] = cited from earlier work
[2] = test system: bovine liver alkaline phosphatase; assay: Accelerated stability of levamisole (and its p-bromo analogue) in various buffers; functional amount measured by inhibition of bovine liver AP; conditions: for Percent of Functional Levamisole Remaining: Day 0
Experimental: (§1) Various buffers were prepared at 100 mM concentrations, containing 1 mM magnesium chloride, and adjusted to pH 9.8. […] (accelerated decomposition study). […] Bovine liver AP was added and the reaction kinetics were followed at 405 nm.

[3] = as above; conditions: pH 9.8
Experimental: as §1

[4] = test system: bovine liver alkaline phosphatase; assay: Potency of the p-bromo analogue relative to levamisole as AP inhibitor; format: biochemical

Compound: c1ccc([C@H]2CN3CCSC3=N2)cc1 [levamisole, (-)2,3,5,6-tetrahydro-6-phenylimidazo[1,2-b]thiazole]
fold less potent toward AP from the intestine than toward AP from several mammalian tissue types (AP from the intestine): approximately 100 fold
decomposition rate at pH 7.9 relative to pH 2 ([1]; elevated temperature, Dickinson et al., Analyst, 96, 248 (1971)): 70 times
pH of solution at which levamisole hydrolyzes ([1]; in solution): ≥ 4
Percent of Functional Levamisole Remaining ([2]; AMP buffer 100 mM, 1 mM magnesium chloride, pH 9.8, 45° C., 1 mM levamisole): 100%
Percent of Functional Levamisole Remaining ([2]; AMPD buffer 100 mM, 1 mM magnesium chloride, pH 9.8, 45° C., 1 mM levamisole): 100%
Percent of Functional Levamisole Remaining ([2]; Carbonate buffer 100 mM, 1 mM magnesium chloride, pH 9.8, 45° C., 1 mM levamisole): 100%
Percent of Functional Levamisole Remaining ([2]; Diethanolamine buffer 100 mM, 1 mM magnesium chloride, pH 9.8, 45° C., 1 mM levamisole): 100%
Percent of Functional Levamisole Remaining ([2]; Glycine buffer 100 mM, 1 mM magnesium chloride, pH 9.8, 45° C., 1 mM levamisole): 100%
Percent of Functional Levamisole Remaining ([2]; Triethanolamine buffer 100 mM, 1 mM magnesium chloride, pH 9.8, 45° C., 1 mM levamisole): 100%
stability of levamisole compared between buffers ([2]; pH 9.8, 45° C., summary of Table I): substantially greater in AMPD and particularly in AMP than in other buffers
remaining at 72 h, 1000 µM ([3]; amp buffer): 118%
remaining at 216 h, 1000 µM ([3]; amp buffer): 107%
remaining at 408 h, 1000 µM ([3]; amp buffer): 87.1%
remaining at 72 h, 1000 µM ([3]; ampd buffer): 110%
remaining at 216 h, 1000 µM ([3]; ampd buffer): 90.2%
remaining at 408 h, 1000 µM ([3]; ampd buffer): 71.7%
remaining at 72 h, 1000 µM ([3]; carbonate buffer): 63.8%
remaining at 216 h, 1000 µM ([3]; carbonate buffer): 32.1%
remaining at 408 h, 1000 µM ([3]; carbonate buffer): 13.7%
remaining at 72 h, 1000 µM ([3]; diethanolamine buffer): 79.8%
remaining at 216 h, 1000 µM ([3]; diethanolamine buffer): 9.12%
remaining at 408 h, 1000 µM ([3]; diethanolamine buffer): 0.31%
remaining at 72 h, 1000 µM ([3]; glycine buffer): 0.08%
remaining at 216 h, 1000 µM ([3]; glycine buffer): 0.02%
remaining at 408 h, 1000 µM ([3]; glycine buffer): 0%
remaining at 72 h, 1000 µM ([3]; triethanolamine buffer): 94.4%
remaining at 216 h, 1000 µM ([3]; triethanolamine buffer): 66.6%
remaining at 408 h, 1000 µM ([3]; triethanolamine buffer): 37.6%

fold more potent than levamisole [4]: approximately 10 fold
Percent of Functional Levamisole Remaining ([2]; AMP buffer, as in Example I (pH 9.8, 45° C.), 0.1 mM p-bromolevamisole): 100%
Percent of Functional Levamisole Remaining ([2]; AMPD buffer, as in Example I (pH 9.8, 45° C.), 0.1 mM p-bromolevamisole): 100%
Percent of Functional Levamisole Remaining ([2]; Carbonate buffer, as in Example I (pH 9.8, 45° C.), 0.1 mM p-bromolevamisole): 100%
Percent of Functional Levamisole Remaining ([2]; Diethanolamine buffer, as in Example I (pH 9.8, 45° C.), 0.1 mM p-bromolevamisole): 100%
Percent of Functional Levamisole Remaining ([2]; Glycine buffer, as in Example I (pH 9.8, 45° C.), 0.1 mM p-bromolevamisole): 100%
Percent of Functional Levamisole Remaining ([2]; Triethanolamine buffer, as in Example I (pH 9.8, 45° C.), 0.1 mM p-bromolevamisole): 100%
remaining at 72 h, 100 µM ([3]; amp buffer): 55.4%
remaining at 216 h, 100 µM ([3]; amp buffer): 23.9%
remaining at 408 h, 100 µM ([3]; amp buffer): 9.6%
remaining at 72 h, 100 µM ([3]; ampd buffer): 74%
remaining at 216 h, 100 µM ([3]; ampd buffer): 37.3%
remaining at 408 h, 100 µM ([3]; ampd buffer): 18.5%
remaining at 72 h, 100 µM ([3]; carbonate buffer): 44.4%
remaining at 216 h, 100 µM ([3]; carbonate buffer): 10.8%
remaining at 408 h, 100 µM ([3]; carbonate buffer): 2.62%
remaining at 72 h, 100 µM ([3]; diethanolamine buffer): 33.6%
remaining at 216 h, 100 µM ([3]; diethanolamine buffer): 1.3%
remaining at 408 h, 100 µM ([3]; diethanolamine buffer): 0.53%
remaining at 72 h, 100 µM ([3]; glycine buffer): 0.29%
remaining at 216 h, 100 µM ([3]; glycine buffer): 0.25%
remaining at 408 h, 100 µM ([3]; glycine buffer): 0%
remaining at 72 h, 100 µM ([3]; triethanolamine buffer): 59%
remaining at 216 h, 100 µM ([3]; triethanolamine buffer): 22.1%
remaining at 408 h, 100 µM ([3]; triethanolamine buffer): 7.86%
Compound: Brc1ccc([C@H]2CN3CCSC3=N2)cc1 [p-bromolevamisole]
decomposition compared with the parent compound levamisole ([2]; pH 9.8, 45° C., summary of Table II): quite a bit faster than the parent compound
